Earlier results, collected in US20210322447A1, “T[…]-DOSING DELIVERY OF PSYCHEDELICS DERIVATIVES” (PIKE THERAPEUTICS, INC., priority 2020, published 2021).

Experiments:
central nervous system = details: cited from Nelson and Foltz, Anal. Chem. 64, 1578-1585, 1992
[1] = system: serotonin receptors in the brain; details: once ingested; typical duration

SMILES | concentration sufficient to induce hallucination (central nervous system) [µg] | duration of mind-altering effects [1]
CCN(CC)C(=O)[C@@H]1C=C2c3cccc4[nH]cc(c34)C[C@H]2N(C)C1 [LSD, 9,10-didehydro-N,N-diethyl-6-methylergoline-80-carboxamide] | 20 to 80 | 
CN(C)CCc1c[nH]c2cccc(OP(=O)(O)O)c12 [psilocybin, [3-(2-dimethylaminoethyl)-1H-indol-4-yl] dihydrogen phosphate] |  | two to six
